Test results: patent US12616716B2, “Wound healing dressings and formulations and methods of use thereof” (Polaroid IP B.V., priority 2023, dated 2026)
≈ marks a conversion by molar mass, not a printed value. Each block holds one compound with its values, some of them ahead of it.

Assays:
[1] = tested on: Staphylococcus aureus ATCC 29213; assay: MBC, spot plating after 24 h in MH broth; details: A = Staphylococcus aureus 29213
[2] = tested on: Staphylococcus aureus MR1; assay: MBC, spot plating after 24 h in MH broth; details: B = Staphylococcus aureus MR1
[3] = tested on: Klebsiella pneumoniae KL1; assay: MBC, spot plating after 24 h in MH broth; details: F = Klebisella pneumoniae KL1
Escherichia coli EC25922 [4] = assay: MBC, spot plating after 24 h in MH broth; details: H = Escherichia coli EC25922
[5] = tested on: Enterococcus faecalis EF19433; assay: MBC, spot plating after 24 h in MH broth; details: E = Enterococcus faecalis EF19433
[6] = tested on: Pseudomonas aeruginosa 27853; assay: MBC, spot plating after 24 h in MH broth; details: G = Pseudomonas aeruginosa 27853
[7] = tested on: Staphylococcus aureus NRS384; assay: MBC, spot plating after 24 h in MH broth; details: C = Staphylococcus aureus NRS384
[8] = tested on: Enterococcus faecalis EF51299; assay: MBC, spot plating after 24 h in MH broth; details: D = Enterococcus faecalis EF51299
S. aureus NRS 384 = assay: Mouse Staphylococcus aureus-induced wound infection model, bacteria load in wound site; details: for Ig(CFU/wound site) 12 h p.i. / ΔIg(CFU/wound site) vs 12 h infection control / Ig(CFU/wound site) 24 h p.i. / ΔIg(CFU/wound site) vs 24 h infection control / Ig (CFU/wound site) / ΔIg(CFU/wound site) vs infection control: twice a day
[9] = tested on: Staphylococcus aureus NRS384; assay: Murine wound infection model, in vivo antimicrobial efficacy (bacterial CFU/wound); details: Study 2 pilot; daily application; 24 hrs and 72 hrs post-seeding
[10] = tested on: Staphylococcus aureus NRS384; assay: MIC, broth microdilution in MH broth with resazurin; type: cell-based; details: Staphylococcus aureus, NRS384, read-out: MIC Concentration
[11] = tested on: Staphylococcus aureus ATCC 29213; assay: as above; type: cell-based; details: Staphylococcus aureus, ATCC29213, read-out: MIC Concentration
[12] = tested on: Staphylococcus aureus MR1; assay: as above; type: cell-based; details: Staphylococcus aureus, MR1, read-out: MIC Concentration
[13] = tested on: Pseudomonas aeruginosa 27853; assay: as above; type: cell-based; details: Pseudomonas aeruginosa, 27853, read-out: MIC Concentration
[14] = tested on: Klebsiella pneumoniae KL1; assay: as above; type: cell-based; details: Klebsiella pneumoniae, KL1, read-out: MIC Concentration
[15] = tested on: Enterococcus faecalis EF19433; assay: as above; type: cell-based; details: Enterococcus faecalis, EF19433, read-out: MIC Concentration
Escherichia coli EC25922 [16] = assay: as above; type: cell-based; details: Escherichia coli, EC25922, read-out: MIC Concentration
Enterococcus faecalis = assay: MIC, CLSI broth microdilution in CAMHB; type: cell-based
Method: (§1) The bacterial strains tested included CLSI and NCTC reference and quality control (QC) strains from the following organism groups: Acinetobacter baumannii, Enterococcus faecalis, Escherichia coli, Klebsiella pneumoniae, Pseudomonas aeruginosa, and Staphylococcus aureus. Some strains contained molecularly characterized β-lactamase genes including carbapenemase (KPC-2) and extended-spectrum β-lactamase (SHV-18) genes.
(§2) Isolates were tested for antimicrobial susceptibility using broth microdilution methodology according to CLSI M07 (2018) and M100 (2023) guidelines. Frozen-form, 96-well MIC panels were produced. The testing medium was cation-adjusted Mueller-Hinton broth (CAMHB). Single MIC values were measured for 8 test compounds against each of the 9 strains tested. Additional MIC values were generated for levofloxacin (comparator agent) against several of the QC strains.
(§3) Compound stock solutions were prepared and allowed to mix overnight as needed. The pH of each stock solution was checked and adjusted as necessary until a minimum pH of 5.0 was achieved (pH range 5.0-7.0). Some compound stock solutions also required the addition of heat to assist in solubilization.
(§4) Current CLSI quality assurance practices were followed when performing the broth microdilution susceptibility testing. MIC values were validated by concurrently testing a control agent (levofloxacin) against CLSI-recommended QC strains including S. aureus ATCC 29213 (methicillin susceptible), E. coli ATCC 25922, Enterococcus faecalis ATCC 29212, and P. aeruginosa ATCC 27853. The initial inoculum density (target, 5×10^5 CFU/mL) during susceptibility testing was monitored by bacterial colony counts.

Klebsiella pneumoniae = assay: MIC, CLSI broth microdilution in CAMHB; type: cell-based
Method: as §1, §2, §3, §4

Pseudomonas aeruginosa = assay: MIC, CLSI broth microdilution in CAMHB; type: cell-based; details: ATCC27853, P. aeruginosa (ATCC 27853)
Method: as §1, §2, §3, §4

Acinetobacter baumannii = assay: MIC, CLSI broth microdilution in CAMHB; type: cell-based; details: NCTC13304, A. baumannii (NCTC 13304)
Method: as §1, §2, §3, §4

Staphylococcus aureus = assay: MIC, CLSI broth microdilution in CAMHB; type: cell-based; details: ATCC29213, S. aureus (ATCC 29213)
Method: as §1, §2, §3, §4

Escherichia coli = assay: MIC, CLSI broth microdilution in CAMHB; type: cell-based
Method: as §1, §2, §3, §4

[17] = 1 mg/ml, 10 μL/wound site, 10 μg/wound site, 12 h p.i.
[18] = 1 mg/ml, 10 μL/wound site, 10 μg/wound site, 24 h p.i.
[19] = Study II, 1 mg/ml, 10 μL/wound site
[20] = Study III, 48 h p.i., 1 mg/ml, 10 μL/wound site
[21] = Study III, 72 h p.i., 1 mg/ml, 10 μL/wound site
[22] = Study V, 0.2 mg/ml, 50 μL/wound site, 24 h p.i.
[23] = Study V, 0.2 mg/ml, 50 μL/wound site, 72 h p.i.

SMILES: CN[C@H](CC(C)C)C(=O)N[C@H]1C(=O)N[C@@H](CC(N)=O)C(=O)N[C@H]2C(=O)N[C@H]3C(=O)N[C@H](C(=O)N[C@H](C(=O)O)c4cc(O)cc(O)c4-c4cc3ccc4O)[C@H](O)c3ccc(c(Cl)c3)Oc3cc2cc(c3O[C@@H]2O[C@H](CO)[C@@H](O)[C@H](O)[C@H]2O[C@H]2C[C@](C)(N)[C@H](O)[C@H](C)O2)Oc2ccc(cc2Cl)[C@H]1O [Van]
MBC Concentration [1]: 0.02 µM (≈ 0.029 µg/mL) | MBC Concentration [2]: 0.02 µM (≈ 0.029 µg/mL) | MBC Concentration [3]: 1.25 µM (≈ 1.81 µg/mL) | MBC Concentration (Escherichia coli EC25922 [4]): 0.31 µM (≈ 0.449 µg/mL) | MBC Concentration [5]: 0.08 µM (≈ 0.116 µg/mL) | MBC Concentration [6]: 2.50 µM (≈ 3.62 µg/mL) | MBC Concentration [7]: 0.02 µM (≈ 0.029 µg/mL) | MBC Concentration [8]: 0.04 µM (≈ 0.058 µg/mL)

SMILES: CN[C@H](CC(C)C)C(=O)N[C@H]1C(=O)N[C@@H](CC(N)=O)C(=O)N[C@H]2C(=O)N[C@H]3C(=O)N[C@H](C(=O)N[C@H](C(=O)O)c4cc(O)cc(O)c4-c4cc3ccc4O)[C@H](O)c3ccc(c(Cl)c3)Oc3cc2cc(c3O[C@@H]2O[C@H](CO)[C@@H](O)[C@H](O)[C@H]2O[C@H]2C[C@](C)(N)[C@H](O)[C@H](C)O2)Oc2ccc(cc2Cl)[C@H]1O [Vancomycin]
Ig(CFU/wound site) 12 h p.i. (S. aureus NRS 384; [17]): 8.02 ± 0.35 Ig(CFU/wound site) | ΔIg(CFU/wound site) vs 12 h infection control (S. aureus NRS 384; [17]): −0.57 ± 0.35 Ig(CFU/wound site) | Ig(CFU/wound site) 24 h p.i. (S. aureus NRS 384; [18]): 7.29 ± 0.32 Ig(CFU/wound site) | ΔIg(CFU/wound site) vs 24 h infection control (S. aureus NRS 384; [18]): −1.44 ± 0.32 Ig(CFU/wound site) | Ig(CFU/wound site) 12 h p.i. (S. aureus NRS 384; Study I, 10 μL/wound site): 8.47 ± 0.22 Ig(CFU/wound site) | Ig(CFU/wound site) 24 h p.i. (S. aureus NRS 384; Study I, 10 μL/wound site): 7.67 ± 0.60 Ig(CFU/wound site) | ΔIg(CFU/wound site) vs 12 h infection control (S. aureus NRS 384; Study I, 10 μL/wound site): −0.11 ± 0.22 Ig(CFU/wound site) | ΔIg(CFU/wound site) vs 24 h infection control (S. aureus NRS 384; Study I, 10 μL/wound site): −1.12 ± 0.60 Ig(CFU/wound site) | bacterial load decreased by, compared with 24 h infection control group (S. aureus NRS 384; Study I, after twice administrations): 1.12 Ig CFU/wound site | effect of a single dose at 12-hour post infection (S. aureus NRS 384; Study I, single dose at 10 μg): not manifest | Ig(CFU/wound site) 12 h p.i. (S. aureus NRS 384; [19]): 7.83 ± 0.44 Ig(CFU/wound site) | Ig(CFU/wound site) 24 h p.i. (S. aureus NRS 384; [19]): 7.50 ± 0.54 Ig(CFU/wound site) | ΔIg(CFU/wound site) vs 12 h infection control (S. aureus NRS 384; [19]): −0.76 ± 0.44 Ig(CFU/wound site) | ΔIg(CFU/wound site) vs 24 h infection control (S. aureus NRS 384; [19]): −1.36 ± 0.54 Ig(CFU/wound site) | Ig (CFU/wound site) (S. aureus NRS 384; Study III, 24 h p.i., 1 mg/ml, 10 μL/wound site, 10 μg/wound site, inoculum 2.50E+06 CFU/wound site): 7.67 ± 0.24 Ig (CFU/wound site) | ΔIg(CFU/wound site) vs infection control (S. aureus NRS 384; Study III, 24 h p.i., 1 mg/ml, 10 μL/wound site): −1.11 ± 0.24 Ig(CFU/wound site) | Ig (CFU/wound site) (S. aureus NRS 384; Study III, 24 h p.i., 1 mg/ml, 50 μL/wound site, 50 μg/wound site): 4.37 ± 0.26 Ig (CFU/wound site) | ΔIg(CFU/wound site) vs infection control (S. aureus NRS 384; Study III, 24 h p.i., 1 mg/ml, 50 μL/wound site): −4.40 ± 0.26 Ig(CFU/wound site) | Ig (CFU/wound site) (S. aureus NRS 384; [20]): 5.29 ± 0.77 Ig (CFU/wound site) | ΔIg(CFU/wound site) vs infection control (S. aureus NRS 384; [20]): −3.28 ± 0.77 Ig(CFU/wound site) | Ig (CFU/wound site) (S. aureus NRS 384; [21]): 5.12 ± 0.65 Ig (CFU/wound site) | ΔIg(CFU/wound site) vs infection control (S. aureus NRS 384; [21]): −2.83 ± 0.65 Ig(CFU/wound site) | Ig (CFU/wound site) (S. aureus NRS 384; [22]): 6.07 ± 0.52 Ig(CFU/wound site) | ΔIg(CFU/wound site) vs infection control (S. aureus NRS 384; [22]): −2.39 ± 0.52 Ig(CFU/wound site) | Ig (CFU/wound site) (S. aureus NRS 384; [23]): 5.05 ± 0.20 Ig(CFU/wound site) | ΔIg(CFU/wound site) vs infection control (S. aureus NRS 384; [23]): −3.22 ± 0.20 Ig(CFU/wound site) | log reduction in wound S. aureus [9]: 1 log | MIC [10]: 0.04 µM (≈ 0.058 µg/mL) | MIC [11]: 0.04 µM (≈ 0.058 µg/mL) | MIC [12]: 0.04 µM (≈ 0.058 µg/mL) | MIC [13]: 5 µM (≈ 7.25 µg/mL) | MIC [14]: 0.63 µM (≈ 0.913 µg/mL) | MIC [15]: 5 µM (≈ 7.25 µg/mL) | MIC (Escherichia coli EC25922 [16]): 0.63 µM (≈ 0.913 µg/mL)

MIC (Enterococcus faecalis; ATCC29212, E. faecalis (ATCC 29212)): 1 µg/mL (≈ 2.77 µM) | MIC (Enterococcus faecalis; ATCC51299, E. faecalis (ATCC 51299)): 0.5 µg/mL (≈ 1.38 µM) | MIC (Klebsiella pneumoniae; ATCC700603, K. pneumoniae (ATCC 700603)): 0.5 µg/mL (≈ 1.38 µM) | MIC (Klebsiella pneumoniae; BAA1705, K. pneumoniae (ATCC BAA 1705)): > 8 µg/mL | MIC (Pseudomonas aeruginosa): 1 µg/mL (≈ 2.77 µM) | MIC (Acinetobacter baumannii): 4 µg/mL (≈ 11.1 µM) | MIC (Staphylococcus aureus): 0.12 µg/mL (≈ 0.332 µM) | MIC (Escherichia coli; ATCC25922, E. coli (ATCC 25922)): 0.015 µg/mL (≈ 0.0415 µM) | MIC (Escherichia coli; ATCCBAA2452, E. coli (ATCC BAA-2452)): 0.03 µg/mL (≈ 0.083 µM)
SMILES: C[C@H]1COc2c(N3CCN(C)CC3)c(F)cc3c(=O)c(C(=O)O)cn1c23 [levofloxacin]
